The source of these data is patent US20020072081A1, “Geranylgeranyl transferase inhibitor screening assay” (priority 2000, published 2002).

The target in this test is T1, GGTase-I (Rattus norvegicus, UniProt P53610).
T1 construct: endogenous in cells; host or cells: H-ras transformed Rat1 fibroblast cell line (Hras2b/rat1)
Description: Cell Radiotracer Assay of Geranylgeranyl Transferase Inhibitor (CRAGGTI), radioligand binding to living cells. Conditions: H-ras transformed Rat1 fibroblast cell line; specific binding, non-specific determined with 1000-fold molar excess of unlabeled Compound A; read-out: concentration of [^3H] Compound A that achieves half maximal binding to cells (apparent Kd). The method, then: In an embodiment of the instant invention, the assay involves growing a cell line in 24-well cell culture plates as an adherent population of cells until the cell culture is nearly confluent. The concentration of radioligand required to achieve half-maximal specific binding to cells is determined by adding the radioligand at varying concentrations to cell culture media, and incubating this mixture with the cells for a defined period of time. To determine the level of non-specific binding of the radioligand, excess unlabeled GGTase-I inhibitor (unlabeled radioligand) is added to some of the wells. After incubation, the unbound radioligand is removed from the cells. […] The cell layer is then solubilized and analyzed. Having determined the concentration of radioligand that achieves half maximal binding to cells, one can determine the relative IC50s of test compounds by incubating varying concentrations of test compounds with the appropriate concentration of radioligand, and perform the cell incubations, washes, and solubilization steps as described. […]
Briefly, the method involves growing a cell line in 24-well cell culture plates as an adherent population of cells until the cell culture is nearly confluent. […] Compound A required to achieve half-maximal specific binding to cells is determined by adding [^3H] […] Having determined the concentration of [^3H] […]

As for `[3H]C(O)(CN1CCN(Cc2cncn2Cc2ccc(C#N)cc2)CC1=O)C12CC3CC(CC(C3)C1)C2` (stereo not shown) [[^3H] Compound A, [^3H]-R/S 1-(4-Cyanobenzyl)-5-[1-(2-hydroxy-2-(adamant-1-yl)ethyl)-2-oxo-piperazin-4-vl-methyl]imidazole], the Kd was approximately 0.3 nM.
